The record followed here is PubChem BioAssay (NCI).

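Each compound was tested at five concentrations against cells in 96-well plates for 48 hours. GI50 = concentration required for 50% inhibition of growth. TGI: total growth inhibition.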 Where a SMILES comes first, the peptide text is derived from it. [ ]: non-standard residue; d: D form. The star is where a group is joined. ξ: configuration not given here. ξF = NC(Cc1ccccc1)C(=O)O; Cbz = O=C(OCc1ccccc1)*; Aib = CC(C)(N)C(=O)O

Test systems include HCT-116 colon; NCI-H460 lung; U251 CNS; OVCAR-3 ovarian; RPMI-8226 leukemia; HOP-62 NSCLC; HCC-2998 colon; TK-10 renal; HCT-15 colon; SK-MEL-2 melanoma.
Common to all, as to assay: NCI anticancer screen, dose series, 48 h

Take `COC(=O)C(C)(C)NC(=O)C(Cc1ccccc1)NC(=O)C(C)(C)NC(=O)OCc1ccccc1` (centres undefined) (Cbz-[Aib]-[ξF]-[Aib]-OMe): the TGI with HCT-116 colon, in the test with NCI-H460 lung, with U251 CNS, with OVCAR-3 ovarian, in the test with RPMI-8226 leukemia and in the test on HOP-62 NSCLC was above 100 µM in each case. In addition, the TGI with HCC-2998 colon, in the test with TK-10 renal and in the test with HCT-15 colon was above 100 µM in each case.

Consider `CC(=O)ON1C(=O)c2cccc3cccc(c23)C1=O`, for which the TGI with HCT-116 colon was 41.7 µM; with NCI-H460 lung, 41.7 µM; in the test on U251 CNS, above 100 µM; with OVCAR-3 ovarian, 68.9 µM; in the test with RPMI-8226 leukemia it was 53.4 µM; with HOP-62 NSCLC it was 85.4 µM. In addition, the TGI is above 100 µM in the test with HCC-2998 colon, 88.5 µM in the test on TK-10 renal, 67.6 µM with SK-MEL-2 melanoma and above 100 µM with HCT-15 colon.

Take `CC(C)(CCCCC(C)(C)C1NC(=O)N1)C1NC(=O)N1`: the TGI with HCT-116 colon, in the test on NCI-H460 lung, in the test on U251 CNS, in the test with RPMI-8226 leukemia, in the test on HOP-62 NSCLC and in the test on HCC-2998 colon was above 10 µM each time. Moreover, the TGI in the test on TK-10 renal, in the test on SK-MEL-2 melanoma and with HCT-15 colon was above 10 µM in each case.

On to `Nc1c(-c2ccccc2[N+](=O)[O-])nc2ccccn12`, for which the TGI in the test with HCT-116 colon, in the test with NCI-H460 lung, in the test with U251 CNS, in the test with OVCAR-3 ovarian, in the test with RPMI-8226 leukemia and in the test with HOP-62 NSCLC was above 100 µM throughout. For the same molecule, the TGI in the test with HCC-2998 colon, in the test with TK-10 renal, with SK-MEL-2 melanoma and in the test with HCT-15 colon was above 100 µM in each case.

Take `CCOC(=O)CCC(NC(=O)OCc1ccccc1)C(=O)NC(CCC(=O)OCC)C(=O)NNC(=O)OC(C)(C)C` (centres undefined): the TGI in the test on HCT-116 colon, in the test with NCI-H460 lung, in the test on U251 CNS, in the test on OVCAR-3 ovarian, in the test on RPMI-8226 leukemia and with HOP-62 NSCLC was above 100 µM each time. For the same molecule, the TGI in the test on HCC-2998 colon, with SK-MEL-2 melanoma and in the test on HCT-15 colon was above 100 µM throughout.

Take `c1cncc(O[Si](Oc2cccnc2)(Oc2cccnc2)Oc2cccnc2)c1`: the TGI in the test on NCI-H460 lung, in the test on U251 CNS, with OVCAR-3 ovarian, with HCC-2998 colon, in the test on TK-10 renal and in the test on SK-MEL-2 melanoma was above 100 µM in each case. In the test with HCT-15 colon, this molecule gave a TGI above 100 µM.

As for `COc1cc(-c2n/c(=C\c3c(O)[nH]c4cc(Cl)ccc34)cc3c2=Nc2ccccc2-3)cc(OC)c1OC`, the GI50 in the test with HCT-116 colon is 3.48 µM; in the test on NCI-H460 lung, 4.56 µM; in the test on U251 CNS it was 1.71 µM; in the test on OVCAR-3 ovarian, 2.13 µM; with RPMI-8226 leukemia, 67.1 µM; in the test with HOP-62 NSCLC it was 2.64 µM. In addition, the GI50 was 7.32 µM in the test on HCC-2998 colon, 2.34 µM in the test on TK-10 renal, 2.51 µM in the test with SK-MEL-2 melanoma and 30.9 µM in the test on HCT-15 colon. Moreover, the TGI is 13.7 µM in the test on HCT-116 colon; 81.7 µM in the test on NCI-H460 lung; 3.36 µM in the test with U251 CNS; 6.69 µM with OVCAR-3 ovarian; above 100 µM with RPMI-8226 leukemia; 5.73 µM in the test with HOP-62 NSCLC. The TGI with HCC-2998 colon was above 100 µM; in the test on TK-10 renal, 5.26 µM; in the test with SK-MEL-2 melanoma, 12.3 µM; with HCT-15 colon, above 100 µM.
